Measurements from ChEMBL document CHEMBL4673320, “Structure Elucidation of the spiro-Polyketide Svalbardine B from the Arctic Fungal Endophyte Poaceicola sp. E1PB with Support from Extensive ESI-MS Interpretation” (J Nat Prod, 2020).
Calls of active or inactive are those of the source.

Legend:
[1] = test system: Staphylococcus haemolyticus; test: Antibacterial activity against Staphylococcus haemolyticus ATCC 29970 assessed as reduction in microbial growth at 20 uM after 18 hrs by resazurin based assay; format: functional, organism-based
Escherichia coli = test: Antibacterial activity against Escherichia coli ATCC 25922 assessed as reduction in microbial growth at 20 uM after 18 hrs by resazurin based assay; format: functional, organism-based
Staphylococcus aureus = test: Antibacterial activity against Staphylococcus aureus ATCC 25923 assessed as reduction in microbial growth at 20 uM after 18 hrs by resazurin based assay; format: functional, organism-based
Serratia marcescens = test: Antibacterial activity against Serratia marcescens ATCC 14756 assessed as reduction in microbial growth at 20 uM after 18 hrs by resazurin based assay; format: functional, organism-based
Enterobacter cloacae = test: Antibacterial activity against Enterobacter cloacae ATCC 35030 assessed as reduction in microbial growth at 20 uM after 18 hrs by resazurin based assay; format: functional, organism-based
[2] = test system: Staphylococcus ureilyticus; test: Antibacterial activity against Staphylococcus cohnii subsp. urealyticum assessed as reduction in microbial growth after at 20 uM 18 hrs by resazurin based assay; format: functional
SH-SY5Y = test: Cytotoxicity against human SH-SY5Y cells assessed as reduction in cell viability at 20 uM after 24 hrs by MTT assay; format: functional, cell-based
Salmonella typhimurium = test: Antibacterial activity against Salmonella typhimurium ATCC 14028 assessed as reduction in microbial growth at 20 uM after 18 hrs by resazurin based assay; format: functional, organism-based; conditions: Salmonella enterica subsp. enterica serovar Typhimurium, DT104 ATCC 14028
Shigella flexneri = test: Antibacterial activity against Shigella flexneri ATCC 12020 assessed as reduction in microbial growth at 20 uM after 18 hrs by resazurin based assay; format: functional, organism-based
Yersinia enterocolitica = test: Antibacterial activity against Yersinia enterocolitica ATCC 23715 assessed as reduction in microbial growth at 20 uM after 18 hrs by resazurin based assay; format: functional, organism-based
Pseudomonas aeruginosa = test: Antibacterial activity against Pseudomonas aeruginosa ATCC 10145 assessed as reduction in microbial growth at 20 uM after 18 hrs by resazurin based assay; format: functional, organism-based

Measured: Activity

COC(=O)c1cc(OC)cc(O)c1C(=O)C1CC2(CCc3cc(OC)cc(C(=O)OC)c3C2=O)C(=O)C2=C(C)OC(C)=CC21 (stereo unspecified)
inactive: [1] | Escherichia coli | Staphylococcus aureus | Serratia marcescens | Enterobacter cloacae | [2] | SH-SY5Y | Salmonella typhimurium | Shigella flexneri | Yersinia enterocolitica | Pseudomonas aeruginosa

COc1cc(O)c2c(c1C)[C@@H](C)[C@@](O)(CO)OC2=O
inactive: [1] | Escherichia coli | Staphylococcus aureus | Serratia marcescens | Enterobacter cloacae | [2] | SH-SY5Y | Salmonella typhimurium | Shigella flexneri | Yersinia enterocolitica | Pseudomonas aeruginosa

COc1cc(=O)oc(C[C@H](C)O)c1C
inactive: [1] | Escherichia coli | Staphylococcus aureus | Serratia marcescens | Enterobacter cloacae | [2] | SH-SY5Y | Salmonella typhimurium | Shigella flexneri | Yersinia enterocolitica | Pseudomonas aeruginosa

CCCc1oc(=O)cc(OC)c1C
inactive: [1] | Escherichia coli | Staphylococcus aureus | Serratia marcescens | Enterobacter cloacae | [2] | SH-SY5Y | Salmonella typhimurium | Shigella flexneri | Yersinia enterocolitica | Pseudomonas aeruginosa

COC(=O)c1cc(OC)cc2c1-c1oc(C)cc(=O)c1CO2
inactive: [1] | Escherichia coli | Staphylococcus aureus | Serratia marcescens | Enterobacter cloacae | [2] | SH-SY5Y | Salmonella typhimurium | Shigella flexneri | Yersinia enterocolitica | Pseudomonas aeruginosa

C=C1OC(=O)c2c(O)cc(OC)c(C)c2[C@H]1C
inactive: [1] | Escherichia coli | Staphylococcus aureus | Serratia marcescens | Enterobacter cloacae | [2] | SH-SY5Y | Salmonella typhimurium | Shigella flexneri | Yersinia enterocolitica | Pseudomonas aeruginosa
